Reference: publication PMC8097418, “In Vitro and In Vivo Antibacterial Activities of a Novel Quinolone Compound, OPS-2071, against Clostridioides difficile” (Antimicrobial Agents and Chemotherapy, 2021)
pIC50: −log10 of the molar value. ≈ marks a conversion by molar mass, not a printed value. Where two headings read alike, the source gives them in different places.

How the values were obtained:
[1] = system: 54 clinically isolated C. difficile strains; test: MIC by agar dilution against 54 clinically isolated strains; format: cell-based, Clostridioides difficile; details: for MIC90 / MIC50: Clostridioides difficile, 54 clinically isolated C. difficile strains; for MIC50: read-out: MIC50
Experimental: (§1) MICs obtained using the agar dilution method were determined visually as described for the CLSI method ([41], [42]). MICs obtained using the broth dilution method were determined visually based on the CLSI method except for using Gifu anaerobic medium (GAM) broth instead of supplemented Brucella broth ([41], [42]).

[2] = system: hypervirulent and nonhypervirulent strains of C. difficile (62 strains); test: MIC distribution against 20 hypervirulent and 42 nonhypervirulent strains; format: cell-based, Clostridioides difficile
[3] = system: 10 clinical isolates of C. difficile; test: MIC (broth dilution) and MBC testing, 10 clinical isolates; format: cell-based, Clostridioides difficile; details: for MBC Range: >99.9% reduction within 48 h; for MIC90 / MBC: Clostridioides difficile; for MBC: read-out: MBC90
Experimental: In this test, MIC testing was performed using the broth dilution method as recommended in the CLSI ([41]). After the MICs were determined, 10 μl of the bacterial suspension from the MIC test tube was inoculated onto agar plates and incubated at 37°C. The bacterial colonies were then counted and bacterial numbers were calculated. The MBC was considered to be the lowest concentration of the antibiotics that prevented growth and reduced the inoculum by >99.9% within 48 h, irrespective of counts of survivors at higher antibiotic concentrations.

[4] = system: C. difficile ATCC 700057; test: MIC by agar dilution (CLSI) against quality control strain; format: cell-based, Clostridioides difficile
Experimental: as §1

[5] = system: C. difficile ATCC 700057; test: MIC by broth dilution (GAM broth); format: cell-based, Clostridioides difficile
Experimental: as §1

[6] = system: C. difficile ATCC 700057; format: cell-based, Clostridioides difficile
[7] = system: C. difficile ATCC 700057; test: Mutant prevention concentration; format: cell-based, Clostridioides difficile; details: approximately 10^10 CFU, 3 days
Experimental: The mutant prevention concentration was measured by plating approximately 10^10 CFU of C. difficile ATCC 700057 onto a GAM agar plate containing the test agent. Inoculated plates were incubated for 3 days, and the MIC for each antibiotic that prevented the growth of colonies was determined using the agar dilution method as described by the CLSI ([41]). The MIC values of grown colonies were compared to determine which bacteria were resistant. The MPC was defined as the lowest concentration that prevented the growth of resistant bacteria.

[8] = system: C. difficile ATCC 700057; test: Postantibiotic effect (PAE); format: cell-based, Clostridioides difficile; details: for Postantibiotic effect: 1 h exposure
Experimental: C. difficile ATCC 700057 was cultured in GAM agar and adjusted in GAM broth to approximately 10^6 CFU/ml. The bacterial suspensions were preincubated at 37°C for 1 h. […] After preincubation, test and reference solutions were added to each bacterial suspension in a test tube, and the suspensions were cultured for 1 h. After exposure to the test compounds, bacterial suspensions were washed with GAM broth and cultured for 6 h. […] The PAE was defined according to Craig and Gudmundsson as PAE = T − C, where T is the time required for the viable counts of the exposed bacteria to increase by 1 log10 above the counts observed immediately after washing, and C is the corresponding time for the antibiotic unexposed controls ([44]).

[9] = system: C. difficile ATCC 43255; test: In vivo hamster model of C. difficile infection; design: species or system golden Syrian hamsters; details: for 50% effective dose (ED50): survival on day 20, oral once daily for 5 days, probit method; for dosages with significant efficacy compared with vehicle control: survival, log-rank test
Experimental: C. difficile ATCC 43255 was cultured on GAM agar, and a bacterial suspension was prepared in saline ([26]). […] Hamsters were infected using oral gavage with 0.5 ml of suspension containing approximately 10^6 CFU of C. difficile (day −1). The next day, the animals were administered clindamycin phosphate (0.2 mg/ml in water) by oral gavage at a dose of 5 ml/kg of body weight, for a final dose of 1 mg/kg (day 0). The animals were allocated to the test groups using a stratified randomization method based on the body weight of each infected animal. The test compounds were administered by oral gavage once daily for 5 days (OPS-2071, 0.008 to 1 mg/kg; fidaxomicin, 0.04 mg/kg to 5 mg/kg; vancomycin, 0.04 to 5 mg/kg [5-fold dilution]). Infected control animals were administered 5% (wt/vol) gum arabic solution by oral gavage. […] The cecal contents of dead animals were tested for toxin A and toxin B using C.Diff Quik Chek Complete (Abbott Diagnostics Medical Co., Ltd., Tokyo, Japan) to confirm that the death of the animal was due to CDI.
The statistical significance of OPS-2071, fidaxomicin, and vancomycin treatment was analyzed at all doses against vehicle. Survival curves were estimated for each group using the Kaplan-Meier method. Differences in survival homogeneity in each group were evaluated with a log-rank test with Dunnett-type (two-sided) comparison.

[10] = system: C. difficile ATCC 43255; test: MIC against the infection strain; format: cell-based, Clostridioides difficile
[11] = system: C. difficile ATCC 700057; test: Effect of pH on MIC (agar dilution); format: cell-based, Clostridioides difficile; details: Clostridioides difficile
[12] = cited from earlier work
[13] = biological target: DNA gyrase of C. difficile (Clostridioides difficile, UniProt Q18C89+Q18C90); test: biochemical
Sequence of DNA gyrase of C. difficile (Q18C90 entry or part of it): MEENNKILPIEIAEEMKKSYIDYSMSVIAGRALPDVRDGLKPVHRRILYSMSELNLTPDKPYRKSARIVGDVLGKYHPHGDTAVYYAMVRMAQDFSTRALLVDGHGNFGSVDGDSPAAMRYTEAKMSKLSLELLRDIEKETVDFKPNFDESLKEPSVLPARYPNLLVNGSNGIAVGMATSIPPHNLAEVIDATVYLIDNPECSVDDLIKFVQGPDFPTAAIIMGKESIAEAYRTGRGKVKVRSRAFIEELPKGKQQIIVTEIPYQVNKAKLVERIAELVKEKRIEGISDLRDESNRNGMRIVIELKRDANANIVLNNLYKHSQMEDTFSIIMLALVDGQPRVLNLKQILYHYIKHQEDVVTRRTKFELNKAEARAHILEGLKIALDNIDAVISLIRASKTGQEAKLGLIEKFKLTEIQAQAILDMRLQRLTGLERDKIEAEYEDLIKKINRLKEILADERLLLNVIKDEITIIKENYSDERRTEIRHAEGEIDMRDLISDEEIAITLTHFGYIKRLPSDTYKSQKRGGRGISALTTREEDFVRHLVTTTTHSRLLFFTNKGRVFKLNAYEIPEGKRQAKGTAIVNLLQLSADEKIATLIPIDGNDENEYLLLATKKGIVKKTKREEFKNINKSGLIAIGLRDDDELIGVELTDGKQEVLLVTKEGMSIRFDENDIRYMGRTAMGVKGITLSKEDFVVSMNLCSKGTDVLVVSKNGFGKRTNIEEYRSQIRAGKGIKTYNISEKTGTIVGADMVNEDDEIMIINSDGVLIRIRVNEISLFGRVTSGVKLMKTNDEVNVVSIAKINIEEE
Sequence of DNA gyrase of C. difficile (Q18C89 entry or part of it): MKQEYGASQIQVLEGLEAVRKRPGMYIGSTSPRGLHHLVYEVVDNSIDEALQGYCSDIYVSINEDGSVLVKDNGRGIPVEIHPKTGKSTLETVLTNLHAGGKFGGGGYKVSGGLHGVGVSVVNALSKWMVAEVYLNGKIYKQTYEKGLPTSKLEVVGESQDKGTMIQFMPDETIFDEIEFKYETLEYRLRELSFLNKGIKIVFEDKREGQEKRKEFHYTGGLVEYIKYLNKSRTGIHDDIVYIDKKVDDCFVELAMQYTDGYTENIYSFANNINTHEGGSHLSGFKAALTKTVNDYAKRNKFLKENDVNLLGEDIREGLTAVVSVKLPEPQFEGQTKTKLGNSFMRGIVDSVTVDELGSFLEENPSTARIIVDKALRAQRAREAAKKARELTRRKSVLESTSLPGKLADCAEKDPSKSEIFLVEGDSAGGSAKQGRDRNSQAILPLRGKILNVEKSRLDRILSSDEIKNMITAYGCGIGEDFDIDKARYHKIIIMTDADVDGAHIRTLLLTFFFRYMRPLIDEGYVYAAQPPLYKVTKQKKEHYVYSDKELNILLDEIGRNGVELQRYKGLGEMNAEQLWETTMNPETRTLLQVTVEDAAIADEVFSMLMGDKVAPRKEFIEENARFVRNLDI

[14] = system: C. difficile ATCC 700057; test: Killing kinetics (time-kill curves); format: cell-based, Clostridioides difficile; details: time-kill, up to 48 h
Experimental: The test tubes were incubated for 48 h. The CFU/ml values of the bacterial suspensions were calculated at 0, 2, 4, 6, 24, and 48 h by culturing 0.1-ml samples of serial 10-fold dilutions on GAM agar plates at 37°C under anaerobic conditions and then counting the number of growing colonies. The CFU/ml value at each time point is from one sample of datum.

[15] = system: C. difficile ATCC 43255; design: method as in PMID 22869573; details: cited from earlier work
[16] = Clostridioides difficile, hypervirulent strains (n = 20)
[17] = Clostridioides difficile, nonhypervirulent strains (n = 42)
[18] = nonhypervirulent strains (n = 42)
[19] = 10 clinical isolates, broth dilution
[20] = 10 clinical isolates, broth dilution, read-out: MIC90
[21] = Clostridioides difficile, ATCC700057, quality control strain ATCC 700057, CLSI method, read-out: MIC
[22] = Clostridioides difficile, ATCC700057, broth dilution, retested for the time-kill assay, read-out: MIC

| Structure (SMILES) | MIC90 [1] | MIC50 [1] | MIC50 [2, 16] | MIC90 [2, 16] | MIC50 [2, 17] | MIC90 [2, 17] | MIC range ([2]; hypervirulent strains (n = 20)) | MIC range [2, 18] | MBC Range ([3]; 10 clinical isolates) | MIC range [3, 19] | MIC90 [3, 20] | MBC ([3]; 10 clinical isolates) | MIC [4, 21] | MIC [5, 22] | Frequency of spontaneous resistance ([6]; 4× MIC) | Frequency of spontaneous resistance ([6]; 16× MIC) | Frequency of spontaneous resistance ([6]; 64× MIC) | mutant prevention concentration (MPC) [7] | PAEs at 4- and 8-fold the MIC [8] | Postantibiotic effect ([8]; 4× MIC) | further results |
| --- | --- | --- | --- | --- | --- | --- | --- | --- | --- | --- | --- | --- | --- | --- | --- | --- | --- | --- | --- | --- | --- |
| CCc1c(Cl)c(O)c(Cl)c(O)c1C(=O)O[C@H]1[C@H](O)[C@H](OC)[C@H](OC/C2=C\C=C\C[C@H](O)/C(C)=C/[C@H](CC)[C@@H](O[C@@H]3OC(C)(C)[C@@H](OC(=O)C(C)C)[C@H](O)[C@@H]3O)/C(C)=C/C(C)=C/C[C@@H]([C@@H](C)O)OC2=O)O[C@@H]1C [Fidaxomicin] | 8 µg/mL (≈ 7.56 µM) | 0.063 µg/mL (≈ 0.0595 µM) | 0.25 µg/mL (≈ 0.236 µM) | 0.25 µg/mL (≈ 0.236 µM) | 0.06 µg/mL (≈ 0.0567 µM) | 0.25 µg/mL (≈ 0.236 µM) | 0.125 to 0.5 µg/mL | 0.008 to 0.5 µg/mL | 0.06 to 0.25 µg/mL | 0.06 to 0.25 µg/mL | 0.125 µg/mL (≈ 0.118 µM) | 0.25 µg/mL (≈ 0.236 µM) | 0.063 µg/mL (≈ 0.0595 µM) | 0.03 µg/mL (≈ 0.0284 µM) | 1.47 × 10^–7 | <9.17 × 10^–9 | <9.17 × 10^–9 | 8 µg/mL | 2.86 to 2.77 h | 2.86 h | MIC90 ([2]; Clostridioides difficile, all 62 strains): 0.25 µg/mL (≈ 0.236 µM); Cumulative percentage of strains ([2]; Hyp (n = 20), MIC 0.063 μg/ml): 0%; Cumulative percentage of strains ([2]; Non-hyp (n = 42), MIC 0.008 μg/ml): 5%; Cumulative percentage of strains ([2]; Non-hyp (n = 42), MIC 0.063 μg/ml): 52%; Cumulative percentage of strains ([2]; Non-hyp (n = 42), MIC <0.004 μg/ml): 0%; MIC ([4]; Clostridioides difficile, ATCC700057, agar dilution, determined for the spontaneous resistance assay, read-out: MIC): 0.06 µg/mL (≈ 0.0567 µM); MIC ([5]; Clostridioides difficile, ATCC700057, broth method, determined for the PAE assay, read-out: MIC): 0.06 µg/mL (≈ 0.0567 µM); Postantibiotic effect ([8]; 8× MIC): 2.77 h; 50% effective dose (ED50) [9]: 1.63 mg/kg/day; dosages with significant efficacy compared with vehicle control [9]: ≥ 1 mg/kg; MIC [10]: 0.06 µg/mL (≈ 0.0567 µM); MIC ([11]; ATCC700057, pH 6): 0.03 µg/mL (≈ 0.0284 µM); MIC ([11]; ATCC700057, pH 7): 0.06 µg/mL (≈ 0.0567 µM); MIC ([11]; ATCC700057, pH 8): 0.06 µg/mL (≈ 0.0567 µM); oral absorption ([12]; plasma concentrations in the low nanogram per milliliter range or lower): minimally absorbed |
| C[C@H]1COc2c(N3CCN(C)CC3)c(F)cc3c(=O)c(C(=O)O)cn1c23 [Levofloxacin] | > 128 µg/mL | 128 µg/mL (≈ 354 µM) | – | – | – | – | – | – | – | – | – | – | – | – | – | – | – | – | – | – | activity against C. difficile isolates ([1]; 54 clinical isolates): inactive; pIC50 [13]: 4.50 |
| Cc1ncc([N+](=O)[O-])n1CCO [Metronidazole] | 4 µg/mL (≈ 23.4 µM) | 2 µg/mL (≈ 11.7 µM) | 0.5 µg/mL (≈ 2.92 µM) | 1 µg/mL (≈ 5.84 µM) | 0.25 µg/mL (≈ 1.46 µM) | 0.5 µg/mL (≈ 2.92 µM) | 0.25 to 16 µg/mL | 0.25 to 1 µg/mL | 1 to 4 µg/mL | 1 to 4 µg/mL | 4 µg/mL (≈ 23.4 µM) | 4 µg/mL (≈ 23.4 µM) | – | 0.5 µg/mL (≈ 2.92 µM) | – | – | – | – | – | – | Cumulative percentage of strains ([2]; Non-hyp (n = 42), MIC […] μg/ml): 100%; concentration needed for an undetectable level to be reached [14]: over 2 fold MIC |
| CN[C@H](CC(C)C)C(=O)N[C@H]1C(=O)N[C@@H](CC(N)=O)C(=O)N[C@H]2C(=O)N[C@H]3C(=O)N[C@H](C(=O)N[C@H](C(=O)O)c4cc(O)cc(O)c4-c4cc3ccc4O)[C@H](O)c3ccc(c(Cl)c3)Oc3cc2cc(c3O[C@@H]2O[C@H](CO)[C@@H](O)[C@H](O)[C@H]2O[C@H]2C[C@](C)(N)[C@H](O)[C@H](C)O2)Oc2ccc(cc2Cl)[C@H]1O [Vancomycin] | 4 µg/mL (≈ 2.76 µM) | 2 µg/mL (≈ 1.38 µM) | – | – | – | – | 1 to 2 µg/mL | 0.5 to 4 µg/mL | 4 to 8 µg/mL | 2 to 4 µg/mL | – | – | 2 µg/mL (≈ 1.38 µM) | 4 µg/mL (≈ 2.76 µM) | <9.17 × 10^–9 | <9.17 × 10^–9 | <9.17 × 10^–9 | 8 µg/mL | 1.03 to 1.25 h | 1.03 h | MIC50 ([2]; Clostridioides difficile, hypervirulent strains (n = 20), read-out: MIC50): 1 µg/mL (≈ 0.69 µM); MIC90 ([2]; Clostridioides difficile, hypervirulent strains (n = 20), read-out: MIC90): 1 µg/mL (≈ 0.69 µM); MIC90 ([2]; Clostridioides difficile, nonhypervirulent strains (n = 42), read-out: MIC90): 2 µg/mL (≈ 1.38 µM); MIC50 [2, 18]: 1 µg/mL (≈ 0.69 µM); MIC90 [3]: 4 µg/mL (≈ 2.76 µM); MBC [3]: 8 µg/mL (≈ 5.52 µM); MIC ([4]; agar dilution, determined for the spontaneous resistance assay): 2 µg/mL (≈ 1.38 µM); MIC ([5]; broth method, determined for the PAE assay): 4 µg/mL (≈ 2.76 µM); concentration needed for an undetectable level to be reached [14]: over 2 fold MIC; Postantibiotic effect ([8]; 8× MIC): 1.25 h; 50% effective dose (ED50) [9]: 1.22 mg/kg/day; dosages with significant efficacy compared with vehicle control [9]: ≥ 1 mg/kg; MIC [10]: 2 µg/mL (≈ 1.38 µM); MIC ([11]; ATCC700057, pH 6): 2 µg/mL (≈ 1.38 µM); MIC ([11]; ATCC700057, pH 7): 2 µg/mL (≈ 1.38 µM); MIC ([11]; ATCC700057, pH 8): 2 µg/mL (≈ 1.38 µM); oral bioavailability [12]: < 10% |
| CCC[C@@H]1C[C@@H](C(=O)N[C@@H]([C@H]2O[C@H](SC)[C@H](O)[C@@H](O)[C@H]2O)[C@H](C)Cl)N(C)C1 [clindamycin] | – | – | – | – | – | – | – | – | – | – | – | – | – | – | – | – | – | – | – | – | MIC [15]: 8 µg/mL (≈ 18.8 µM) |
